Reference: patent publication US9120807B2, “Thienopyrimidine compounds” (Vernalis (R&D) Ltd., priority 2007, dated 2015)

Legend:
Format in all cases: cell-based
[1] = molecular target: human adenosine A2B receptors (Homo sapiens (Human), UniProt P29275); assay: FLIPR calcium flux functional assay, A2B receptor; conditions: mammalian cell line expressing human A2B
Method: (§1) The use of a Fluorometric Imaging Plate Reader (FLIPR) to measure calcium flux in Adenosine-receptor expressing cells is a well-established technique. In this assay calcium flux is triggered by receptor activation and measured through the fluorescence of an incorporated calcium-sensitive dye. The potencies shown were determined using expressed human adenosine A2B receptors in mammalian cell lines. Selectivity values were obtained by using mammalian cell lines expressing the human adenosine A1, A2A and A3 receptors. Compound potency was determined from dose response curves and is reported as an IC50 value.
(§2) All examples were tested for activity in the functional assay described above.

[2] = molecular target: human adenosine A1 receptor (Homo sapiens (Human), UniProt P30542); assay: FLIPR calcium flux functional assay, A1 receptor; conditions: for Kb: mammalian cell line expressing human A1, calcium flux; for A1/A2b: selectivity ratio of Kb values
Method: as §1, §2

[3] = molecular target: human adenosine A2A receptor (Homo sapiens (Human), UniProt P29274); assay: FLIPR calcium flux functional assay, A2A receptor; conditions: for Kb: mammalian cell line expressing human A2A, calcium flux; for A2a/A2b: selectivity ratio of Kb values
Method: as §1, §2

[4] = molecular target: human adenosine A3 receptor (Homo sapiens (Human), UniProt P0DMS8); assay: FLIPR calcium flux functional assay, A3 receptor; conditions: for Kb: mammalian cell line expressing human A3, calcium flux; for A3/A2b: selectivity ratio of Kb values
Method: as §1, §2

Chain of human adenosine A2A receptor (P29274 whole entry): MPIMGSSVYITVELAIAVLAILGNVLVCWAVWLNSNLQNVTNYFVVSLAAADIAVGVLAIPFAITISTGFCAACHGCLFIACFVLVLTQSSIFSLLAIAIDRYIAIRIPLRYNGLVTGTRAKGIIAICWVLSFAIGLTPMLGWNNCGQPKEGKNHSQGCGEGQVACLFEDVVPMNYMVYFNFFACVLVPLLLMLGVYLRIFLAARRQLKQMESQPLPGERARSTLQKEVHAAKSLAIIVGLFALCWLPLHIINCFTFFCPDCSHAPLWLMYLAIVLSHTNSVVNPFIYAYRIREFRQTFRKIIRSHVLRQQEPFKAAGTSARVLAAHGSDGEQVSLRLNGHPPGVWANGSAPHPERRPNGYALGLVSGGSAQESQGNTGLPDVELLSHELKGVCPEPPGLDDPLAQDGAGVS
Chain of human adenosine A3 receptor (P0DMS8 whole entry): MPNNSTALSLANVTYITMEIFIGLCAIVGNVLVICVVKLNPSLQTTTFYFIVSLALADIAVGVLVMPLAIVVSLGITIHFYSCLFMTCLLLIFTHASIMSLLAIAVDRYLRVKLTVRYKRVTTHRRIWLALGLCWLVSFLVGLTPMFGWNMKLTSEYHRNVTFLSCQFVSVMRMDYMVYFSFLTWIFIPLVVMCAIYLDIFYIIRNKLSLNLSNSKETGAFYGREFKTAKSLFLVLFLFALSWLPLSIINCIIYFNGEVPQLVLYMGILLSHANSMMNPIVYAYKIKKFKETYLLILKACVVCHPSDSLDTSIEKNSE
Chain of human adenosine A2B receptors (P29275 whole entry): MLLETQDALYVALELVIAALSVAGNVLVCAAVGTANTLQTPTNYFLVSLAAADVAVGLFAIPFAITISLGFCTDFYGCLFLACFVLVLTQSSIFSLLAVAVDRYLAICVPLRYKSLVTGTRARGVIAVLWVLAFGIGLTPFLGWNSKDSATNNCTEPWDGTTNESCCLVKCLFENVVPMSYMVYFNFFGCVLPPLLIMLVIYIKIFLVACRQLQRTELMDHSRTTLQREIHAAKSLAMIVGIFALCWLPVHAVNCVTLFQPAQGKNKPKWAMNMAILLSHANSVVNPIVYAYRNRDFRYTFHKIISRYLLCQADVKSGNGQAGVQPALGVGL
Chain of human adenosine A1 receptor (P30542 whole entry): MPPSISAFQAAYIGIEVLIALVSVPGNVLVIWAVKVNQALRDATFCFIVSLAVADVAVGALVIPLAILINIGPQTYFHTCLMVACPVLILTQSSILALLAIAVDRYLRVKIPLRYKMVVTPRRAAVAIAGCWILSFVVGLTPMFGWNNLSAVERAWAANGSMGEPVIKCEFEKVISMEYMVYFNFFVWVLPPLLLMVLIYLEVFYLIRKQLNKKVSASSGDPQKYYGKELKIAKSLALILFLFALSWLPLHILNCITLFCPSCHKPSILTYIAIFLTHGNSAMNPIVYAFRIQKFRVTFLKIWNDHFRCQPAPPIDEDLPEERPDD

`Nc1cc2nc(NCc3cccnc3)nc(C(=O)c3cccs3)c2s1` [Example 9, {6-Amino-2-[(pyridin-3-ylmethyl)-amino]-thieno[3,2-d]pyrimidin-4-yl}-thiophen-2-yl-methanone] was tested, and the Kb [1] was 0.0071 µM, the Kb [2] was 1.1 µM and the A1/A2b [2] was 155. It also gave a Kb [3] of 1.4 µM, an A2a/A2b [3] greater than 196 and a Kb [4] of 0.233 µM. For the same molecule, the A3/A2b [4] was 33.

Work on `CCc1cc2nc(NCc3cccnc3)nc(C(=O)c3cccs3)c2s1` [Example 11, {6-Ethyl-2-[(pyridin-3-ylmethyl)-amino]-thieno[3,2-d]pyrimidin-4-yl}-thiophen-2-yl-methanone] yielded a Kb [1] of 0.0367 µM, a Kb [2] of 0.216 µM and an A1/A2b [2] of 6. The Kb [3] was 3.75 µM, the A2a/A2b [3] was greater than 102 and the Kb [4] was 0.361 µM. The A3/A2b [4] was 10.

`CNc1cc2nc(NCc3cccnc3)nc(C(=O)c3cccs3)c2s1` [Example 6, {6-Methylamino-2-[(pyridin-3-ylmethyl)-amino]-thieno[3,2-d]pyrimidin-4-yl}-thiophen-2-yl-methanone] showed a Kb [1] of 0.0014 µM, a Kb [2] of 0.0576 µM and an A1/A2b [2] of 41. The Kb [3] was 0.277 µM, the A2a/A2b [3] was 198 and the Kb [4] was 0.0229 µM. The A3/A2b [4] was 16.

`C=Cc1cc2nc(NCc3cccnc3)nc(C(=O)c3cccs3)c2s1` [Example 10, {2-[(Pyridin-3-ylmethyl)-amino]-6-vinyl-thieno[3,2-d]pyrimidin-4-yl}-thiophen-2-yl-methanone] was tested, and the Kb [1] was 0.0523 µM, the Kb [2] was 0.161 µM and the A1/A2b [2] was 3. For the same molecule, the Kb [3] was 3.75 µM, the A2a/A2b [3] was greater than 71 and the Kb [4] was 0.747 µM. For the same molecule, the A3/A2b [4] was 14.

With `CCNc1cc2nc(NCc3cccnc3)nc(C(=O)c3cccs3)c2s1` [Example 8, {6-Ethylamino-2-[(pyridin-3-ylmethyl)-amino]-thieno[3,2-d]pyrimidin-4-yl}-thiophen-2-yl-methanone] the Kb [1] was 0.0067 µM, the Kb [2] was 0.118 µM and the A1/A2b [2] was 18. It also gave a Kb [3] of 0.726 µM, an A2a/A2b [3] of 109 and a Kb [4] of 0.0373 µM. For the same molecule, the A3/A2b [4] was 6.

For `O=C(c1cccs1)c1nc(NCc2cccnc2)nc2cc(NCc3cccnc3)sc12` [Example 12, {6-(3-picolylamino)-2-[(pyridin-3-ylmethyl)-amino]-thieno[3,2-d]pyrimidin-4-yl}-thiophen-2-yl-methanone], the Kb [1] was 0.0689 µM, the Kb [2] was 0.256 µM and the A1/A2b [2] was 4. It also gave a Kb [3] of 0.828 µM, an A2a/A2b [3] of 12 and a Kb [4] of 0.308 µM. For the same molecule, the A3/A2b [4] was 4.

Work on `CN(C)c1cc2nc(NCc3cccnc3)nc(C(=O)c3cccs3)c2s1` [Example 7, {6-dimethylamino-2-[(pyridine-3-ylmethyl)-amino]-thieno[3,2-d]pyrimidin-4-yl}-thiophen-2-yl-methanone] yielded a Kb [1] of 0.0065 µM, a Kb [2] of 0.0194 µM and an A1/A2b [2] of 3. For the same molecule, the Kb [3] was 0.318 µM, the A2a/A2b [3] was 49 and the Kb [4] was 0.13 µM. It also gave an A3/A2b [4] of 20.
